Values quoted from earlier work as cited in patent US6511968B1, “Combination therapy for treating, preventing, or reducing the risks associated with acute coronary ischemic syndrome and related conditions” (Merck & Co., Inc., priority 1998, dated 2003).
Structures can show the parent of a compound that is named as a salt. Where a SMILES comes first, the peptide text is derived from it. Bridges are numbered along the chain shown (N, C = ends). [ ]: non-standard residue; d: D form. hArg = N=C(N)NCCCC[C@H](N)C(=O)O; Mpa = O=C(O)CCS

Columns and labels:
[1] = target: GP IIb/IIIa (Homo sapiens, UniProt P05106+P08514); conditions: for selectivity for GPIIb/IIIa: administered intravenously
[2] = target: αvβ3 (Homo sapiens, UniProt P05106+P06756)
[3] = prodrug
[4] = system: platelet aggregation; conditions: increasing concentrations added to platelet-rich plasma in vitro or incremental doses in vivo

Chain of GP IIb/IIIa (P08514 32-887 limits assumed): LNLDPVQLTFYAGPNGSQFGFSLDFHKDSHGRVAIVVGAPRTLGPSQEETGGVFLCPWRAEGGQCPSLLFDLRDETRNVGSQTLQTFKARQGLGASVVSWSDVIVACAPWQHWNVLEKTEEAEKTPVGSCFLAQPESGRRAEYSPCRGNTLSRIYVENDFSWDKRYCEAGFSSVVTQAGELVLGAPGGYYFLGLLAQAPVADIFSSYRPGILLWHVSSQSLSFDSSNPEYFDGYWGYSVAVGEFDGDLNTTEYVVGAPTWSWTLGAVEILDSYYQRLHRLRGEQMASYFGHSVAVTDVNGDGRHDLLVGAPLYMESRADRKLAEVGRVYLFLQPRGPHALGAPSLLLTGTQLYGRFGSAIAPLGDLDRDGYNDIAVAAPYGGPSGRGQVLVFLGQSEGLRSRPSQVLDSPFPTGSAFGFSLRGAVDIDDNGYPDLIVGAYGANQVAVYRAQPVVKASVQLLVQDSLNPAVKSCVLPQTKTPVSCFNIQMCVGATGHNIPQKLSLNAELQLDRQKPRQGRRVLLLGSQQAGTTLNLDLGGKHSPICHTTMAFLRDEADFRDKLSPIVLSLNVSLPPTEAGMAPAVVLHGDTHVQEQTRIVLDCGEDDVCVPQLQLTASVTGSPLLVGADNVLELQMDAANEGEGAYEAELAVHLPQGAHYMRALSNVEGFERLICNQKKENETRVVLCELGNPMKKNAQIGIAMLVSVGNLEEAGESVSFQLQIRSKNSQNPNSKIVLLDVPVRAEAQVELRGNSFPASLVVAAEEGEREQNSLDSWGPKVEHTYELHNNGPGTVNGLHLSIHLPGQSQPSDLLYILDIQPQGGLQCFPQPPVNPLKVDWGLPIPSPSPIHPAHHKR
Chain of GP IIb/IIIa (P08514 891-1039 partner limits assumed): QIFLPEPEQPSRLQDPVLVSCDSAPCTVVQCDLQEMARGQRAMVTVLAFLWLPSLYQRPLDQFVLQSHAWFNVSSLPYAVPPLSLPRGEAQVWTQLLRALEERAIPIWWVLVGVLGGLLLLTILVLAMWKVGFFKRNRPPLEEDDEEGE
Chain of GP IIb/IIIa (P05106 27-788): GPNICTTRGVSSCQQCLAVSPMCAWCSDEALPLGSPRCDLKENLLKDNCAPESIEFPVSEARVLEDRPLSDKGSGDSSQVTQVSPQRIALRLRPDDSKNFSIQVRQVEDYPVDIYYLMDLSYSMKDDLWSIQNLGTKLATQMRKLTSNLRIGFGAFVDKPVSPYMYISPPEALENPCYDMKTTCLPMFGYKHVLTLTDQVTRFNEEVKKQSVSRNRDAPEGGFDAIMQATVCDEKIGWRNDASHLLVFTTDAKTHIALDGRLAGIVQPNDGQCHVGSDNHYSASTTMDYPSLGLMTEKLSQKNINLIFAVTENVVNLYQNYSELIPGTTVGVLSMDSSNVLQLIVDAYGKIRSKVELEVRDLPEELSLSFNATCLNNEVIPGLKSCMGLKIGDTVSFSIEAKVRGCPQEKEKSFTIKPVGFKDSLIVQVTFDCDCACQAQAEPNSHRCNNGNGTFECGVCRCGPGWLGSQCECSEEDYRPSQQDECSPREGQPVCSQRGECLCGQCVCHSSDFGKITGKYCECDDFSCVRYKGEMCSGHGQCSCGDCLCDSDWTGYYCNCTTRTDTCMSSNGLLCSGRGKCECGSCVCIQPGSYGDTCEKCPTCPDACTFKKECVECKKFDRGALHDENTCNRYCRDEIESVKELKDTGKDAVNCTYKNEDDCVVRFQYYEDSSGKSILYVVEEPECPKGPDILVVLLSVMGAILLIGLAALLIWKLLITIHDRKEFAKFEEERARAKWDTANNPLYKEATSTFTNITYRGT
Chain of αvβ3 (P06756 31-889 limits assumed): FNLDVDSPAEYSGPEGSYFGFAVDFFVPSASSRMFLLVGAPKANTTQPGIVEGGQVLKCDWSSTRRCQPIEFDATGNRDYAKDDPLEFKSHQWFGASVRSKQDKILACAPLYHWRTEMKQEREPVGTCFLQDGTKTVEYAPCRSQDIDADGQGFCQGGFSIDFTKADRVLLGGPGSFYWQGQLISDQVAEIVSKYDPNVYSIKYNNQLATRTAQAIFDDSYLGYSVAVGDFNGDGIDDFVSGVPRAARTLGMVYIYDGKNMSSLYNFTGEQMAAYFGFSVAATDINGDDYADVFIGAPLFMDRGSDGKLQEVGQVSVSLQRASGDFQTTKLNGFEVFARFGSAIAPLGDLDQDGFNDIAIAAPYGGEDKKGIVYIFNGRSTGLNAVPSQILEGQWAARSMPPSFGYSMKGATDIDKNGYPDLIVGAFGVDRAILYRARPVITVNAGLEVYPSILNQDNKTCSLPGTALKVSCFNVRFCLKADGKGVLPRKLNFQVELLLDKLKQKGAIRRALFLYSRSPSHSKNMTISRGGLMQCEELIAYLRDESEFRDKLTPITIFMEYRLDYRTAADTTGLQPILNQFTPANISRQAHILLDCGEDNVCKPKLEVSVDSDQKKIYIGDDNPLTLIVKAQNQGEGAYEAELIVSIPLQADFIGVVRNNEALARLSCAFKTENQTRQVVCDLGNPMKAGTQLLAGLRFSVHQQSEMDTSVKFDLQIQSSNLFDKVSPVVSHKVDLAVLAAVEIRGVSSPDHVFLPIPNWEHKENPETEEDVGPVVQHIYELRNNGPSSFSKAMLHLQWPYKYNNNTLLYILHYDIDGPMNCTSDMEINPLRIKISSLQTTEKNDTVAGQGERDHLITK
Chain of αvβ3 (P06756 891-1048 partner limits assumed): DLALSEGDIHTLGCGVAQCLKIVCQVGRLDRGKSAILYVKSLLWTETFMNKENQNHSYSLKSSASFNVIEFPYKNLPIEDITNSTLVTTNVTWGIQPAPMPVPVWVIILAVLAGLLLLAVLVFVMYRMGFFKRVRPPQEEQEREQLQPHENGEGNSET
Chain of αvβ3 (P05106 27-788): as the sequence (P05106 27-788) above

Q: Which “selectivity for GPIIb/IIIa” value [1] does the source give for CCCCS(=O)(=O)N[C@@H](Cc1ccc(OCCCCC2CCNCC2)cc1)C(=O)O [MK-383, 2-S-(n-Butylsulfonylamino)-3[4-piperidin-4-yl)butyloxyphenyl]propionic acid hydrochloride] here?
A: selective for GPIIb/IIIa

Q: What does the source list for N=C(N)NCCCC[C@@H]1NC(=O)CCSSC[C@@H](C(N)=O)NC(=O)[C@@H]2CCCN2C(=O)[C@H](Cc2c[nH]c3ccccc23)NC(=O)[C@H](CC(=O)O)NC(=O)CNC1=O [Integrelin] ([Mpa][hArg]GDWPC-NH2; disulfide 1-7)?
A: inhibition of ligand binding to GP IIb/IIIa / receptor blockade [1]: inhibits ligand binding to GP IIb/IIIa; effect on ligand binding to αvβ3 / receptor blockade [2]: very little effect

Q: With C#C[C@H](CC(=O)OCC)NC(=O)CCC(=O)Nc1ccc(C(=N)N)cc1 [SC54684, ethyl 3-[[4-[[4-(aminoiminomethyl)phenyl]amino]-1,4-dioxobutyl]amino]-4-pentynoate] as the molecule, how does the oral bioavailability [3] read?
A: high oral bioavailability

Q: For N=C(N)c1ccc(C(=O)N[C@@H](Cc2ccc(O)cc2)C(=O)N2CCC(OCC(=O)O)CC2)cc1 [Ro 44-9883], which “selectivity for GPIIb/IIIa” value [1] is on record?
A: selective for GPIIb/IIIa

B1: c7E3 Fab: c7E3 Fab form of the 7E3 antibody (antibody, chains of the INN, looked up, V domains shown)
VH: EVQLQQSGTVLARPGASVKMSCEASGYTFTNYWMHWVKQRPGQGLEWIGAIYPGNSDTSYIQKFKGKAKLTAVTSTTSVYMELSSLTNEDSAVYYCTLYDGYYVFAYWGQGTLVTVSA
VL: EIVLTQSPVTLSVTPGDSVSLSCRASRDISNNLHWFQQTSHESPRLLIKYASQSMSGIPSRFSGSGSGTDFTLSINSVETEDFGMYFCQQTNSWPYTFGGGTKLEIK
modifications: Fab
notes: c7E3 Fab form of the 7E3 antibody
Q: With B1 as the molecule, how does the platelet aggregation [4] read?
A: profoundly inhibited
